We go through two molecules from patent US7566453B2, “Methods for treating melanomas” (Chugai Seiyaku Kabushiki Kaisha, priority 1998, dated 2009).

The subject of series [1] is KPMM2, a human myeloma cell line. The series is described as follows: Human myeloma cell-implanted SCID mouse system (Example 2): survival, disease-free ratio, serum M protein. Format: in vivo. The conditions noted are these: for Survival period: mean ± standard error; for Life-elongation ratio* (%): 100 × (drug administration group/drug non-administration group); for None disease ratio: survival ratio without disease on day 120. An excerpt: (§1) For evaluation of antitumor activity, a xenograft model was used. Thus, KPMM2, a human myeloma cell line derived from ascites of a patient with multiple myeloma was implanted to a male SCID mouse (FOX CHASE C. B17/Icr-Scid Jcl, purchased from Nippon Klea) via the tail vein. At this time, the tumor cells grow in the bone marrow and come to produce myeloma protein (M protein) in the peripheral blood. Furthermore, this model system is very close to an actual clinical condition in that it develops major symptoms of multiple myeloma in humans such as bone disorders, elevated blood calcium, and the like.
Single cell suspension of myeloma cells for implantation was prepared by passing through a mesh the well minced KPMM2 cells that have been maintained in vivo. Cell density was adjusted to 3×10^7/ml, which was implanted at 0.2 ml per mouse via the tail vein ([…]). The day when the cells were implanted was set at day 0.
This was given to mice at 0.2 ml per animal via the tail vein on day 8 (1 mg per mouse).
Melphalan (L-PAM, manufactured by Sigma Chemical Co.) that was suspended at 0.3 or 0.1 mg/ml in 0.2% CMC (carboxymethylcellulose) solution in water was used. This was given orally at 0.1 ml per 10 g body weight of mouse (3 or 1 mg/kg weight) for 5 consecutive days starting on day 1.
The experiment was carried out on the following six groups: (1) the melphalan and antibody non-administration group; (2) the 1 mg/kg melphalan single-drug administration group; (3) the 3 mg/kg melphalan single-drug administration group; (4) antibody single-drug administration group; (5) the 1 mg/kg melphalan and antibody combined administration group; and (6) the 3 mg/kg melphalan and antibody combined administration group. Group 1 included 9 mice, whereas each of the other groups included 7 mice. Furthermore, tumor was not implanted on mice of the same lineage and purchased on the same day, which were used as negative control for M protein detection.
Indices of the drug efficacy included the survival period, the survival ratio without disease on day 120, and the amount of M protein on day 30. For analysis using a survival curve, a generalized Wilcoxon's test (SPSS for windows ver. 6, SPSS inc.) was used. A significance level of 5% or lower was considered to be significant.
Serum M protein was detected as human IgG using the ELISA method. First, mouse serum was dispensed into a 96-well micro plate that had previously been coated with anti-human IgG antiserum and was allowed to stand. Then alkaline phosphatase-conjugated […] was bound thereto, and SIGMA104 phosphatase substrate was added for color development, absorbance of which was read using a microplate reader. M protein content in the serum was calculated using the standard curve obtained from normal human IgG.

The nature of series [2]: Body weight change (toxicity) of myeloma-implanted mice, Example 3. Format: in vivo, SCID mouse. The conditions noted are these: melphalan administration (FIG. 16). As for the experimental part: For evaluation of antitumor effects, a xenograft model animal that was produced by implanting KPMM2 cells via the tail vein was used as in Working example 2. Thus, single-cell suspensions which were prepared by passing through a mesh KPMM2 cells that were minced after having been maintained in vivo were implanted at 0.2 ml per mouse via the tail vein (6×10^6 cells per mouse). The day when the cells were implanted was set at day 0.
With regard to anti-human IL-6 receptor antibody hPM-1, a stock solution that had been preserved at 6.57 mg/ml was diluted in sodium phosphate buffer to make each solution of 5, 1, 0.2, and 0.04 mg/ml. They were given to mice at 0.1 ml per 10 g body weight of mouse via the tail vein on day 14 to create the 50, 10, 2, and 0.4 mg/kg administration groups. The control group received the same buffer without antibody in a similar manner. […]
The experiment was carried out on the following 10 groups: (A) the melphalan and the antibody non-administration group; (B) the melphalan single-drug administration group; (C) the each dose of antibody single-drug administration group , 4 groups (50, 10, 2, 0.4 mg/kg weight); and, (D) the melphalan and the each dose of antibody combined administration group, 4 groups (50, 10, 2, 0.4 mg/kg weight). […] The amount of M protein was calculated as described in Example 2.

A short description of series [3]: Body weight change (toxicity) of myeloma-implanted mice, Example 2. Format: in vivo, SCID mouse. The conditions noted are these: melphalan administration (FIG. 10).
Description: as §1
With regard to anti-human IL-6 receptor antibody, a stock solution that had been preserved at 12.1 mg/ml was diluted in sterile phosphate buffer to make 5 mg/ml. This was given to mice at 0.2 ml per animal via the tail vein on day 8 (1 mg per mouse). The control group received sterile phosphate buffer containing no antibody in a similar manner.
Melphalan (L-PAM, manufactured by Sigma Chemical Co.) that was suspended at 0.3 or 0.1 mg/ml in 0.2% CMC (carboxymethylcellulose) solution in water was used. This was given orally at 0.1 ml per 10 g body weight of mouse (3 or 1 mg/kg weight) for 5 consecutive days starting on day 1. The control group received 0.2% CMC solution in water containing no melphalan in a similar manner. […]

Series [4] has as its target T1, human IL-6 receptor (Homo sapiens, UniProt P08887).
T1 sequence (P08887 20-468): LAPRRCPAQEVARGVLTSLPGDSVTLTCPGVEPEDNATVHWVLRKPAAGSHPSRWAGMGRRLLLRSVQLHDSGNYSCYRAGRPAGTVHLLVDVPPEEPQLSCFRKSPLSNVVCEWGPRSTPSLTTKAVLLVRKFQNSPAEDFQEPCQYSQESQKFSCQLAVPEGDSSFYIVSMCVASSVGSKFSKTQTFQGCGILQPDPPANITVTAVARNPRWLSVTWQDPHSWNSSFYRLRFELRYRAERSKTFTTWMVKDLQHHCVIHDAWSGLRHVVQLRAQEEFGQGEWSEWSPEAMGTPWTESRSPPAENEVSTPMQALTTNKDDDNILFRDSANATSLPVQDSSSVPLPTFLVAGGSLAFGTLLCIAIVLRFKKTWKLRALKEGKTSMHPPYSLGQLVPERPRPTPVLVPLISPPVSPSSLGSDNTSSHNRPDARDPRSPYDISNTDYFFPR
The series is described as follows: ELISA of binding to human IL-6 receptor. An excerpt: In order to express genes of L chain and H chain of the reshaped human PM-1 antibody thus constructed, DNA encoding the L chain or the H chain was separately inserted into a vector containing the human elongation factor 1α (HEF-1α) promoter, and a vector expressing the L chain or the H chain of the reshaped human PM-1 (hPM-1) antibody was constructed. By simultaneously inserting these two expression vectors into CHO cells, a cell line that produces reshaped human PM-1 antibody (hPM-1) was established.
For orientation: In an ELISA, binding on a coated surface is turned into a signal by an enzyme label.

The mark [5] stands for this setting: melphalan 1 mg/kg orally, 5 days from day 1, no antibody.
Setting [6] is: melphalan 3 mg/kg orally, 5 days from day 1, no antibody.
[7] abbreviates: hPM-1 1 mg per mouse via the tail vein on day 8, CMC control.

Turning to `NC(Cc1ccc(N(CCCl)CCCl)cc1)C(=O)O` (stereo not drawn) [melphalan], the “life elongation effect as compared to the non-administration group” value in series [1] (1 mg/ml melphalan administration group (FIG. 7)) is “no life elongation effect”; in series [1] (3 mg/kg melphalan single-drug administration (FIG. 9)) it was “significant life elongation effect”. Besides, the Survival period in series [1] (melphalan 1 mg/kg orally, 5 consecutive days from day 1, no antibody) was 47.3 ± 3.1; in series [1] (melphalan 3 mg/kg orally, 5 consecutive days from day 1, no antibody), 84.1 ± 9.1. Further, the entries for the “Life-elongation ratio* (%)” value in series [1] (setting [5]) and in series [1] (setting [6]) were 101% and 175%, respectively. Further, the None disease ratio was 0/7 in series [1] (setting [5]) and 2/7 in series [1] (setting [6]). Also, the “toxicity (inhibition of body weight gain)” value was “caused toxicity to mice and inhibited body weight gain” in series [2]; “caused toxicity in mice and inhibited body weight gain” in series [3].

As to “hPM-1: reshaped human PM-1 antibody: CDRs of mouse anti-IL-6 receptor antibody PM-1 grafted to human antibody, produced in CHO cells”, the “ability to bind to human IL-6 receptor” value in series [4] was “confirmed by ELISA”. Also, the “life elongation effect as compared to the non-administration group” value in series [1] (antibody single-drug administration, 1 mg per mouse on day 8 (FIG. 7)) is recorded as “no life elongation effect”. In series [1] (setting [7]), the “Life-elongation ratio* (%)” value was 118% and the Survival period is on record as 55.1 ± 5.2. Further, the None disease ratio in series [1] (hPM-1 1 mg per mouse on day 8, CMC control) was 0/7.
